Measurements as given in patent US20250122193A1, “NOVEL PYRIDOCARBAZOLIUM COMPOUNDS AND MEDICAL USES THEREOF” (MyCural Therapeutics, priority 2021, published 2025).

Key:
Format in all cases: cell-based
[1] = biological target: T1, homodimerization of the bZip protein GCN4 (Saccharomyces cerevisiae, UniProt P03069); experiment: split Gaussia luciferase (GLuc) assay, GCN4:GCN4; conditions: 6.5 μM
T1 construct: replacing the existing Zip-gene (GCN4); expressed in transfected cells; host or cells: HeLa
T1 sequence (P03069 253-274 limits assumed): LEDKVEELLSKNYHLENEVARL
Protocol: FIG. 1: MYCMI-7 (Compound Example 1) inhibits the MYC:MAX interaction in cells, bind MYC in vitro, and blocks MYC function. A) Molecular structure of MYCMI-7. B-E) split Gaussia luciferase (GLuc) assay. MYC or MYCN and MAX Gluc constructs were co-transfected into HeLa cells together with a firefly luciferase vector. 24 hours post transfection cells were treated with compounds, and after another 17-24 hours cells were harvested and both GLuc and firefly luciferase activities were measured. The mean of three different experiments is shown. […] G) Quantification of isPLA dots. […] J) MYC target gene ODC1 expression after treatment with 5 μM MYCMI-7, quantified by qPCR. […] L) Recombinant MYC bHLHZip protein domain immobilized onto a CM5 chip was subjected to various concentrations of MYCMI-7 and the complex of MYCbHLHZip-MYCMI-7 was measured as response units by SPR. […]
0.2-0.4 μg of each GLuc-construct together with 0.05 μg pCMV-LUC (firefly luciferase) were used per transfection in 12 well plates. […] After 60 min incubation at room temperature 20 μM D-luciferin was added (substrate of Firefly luciferase) and luminescence was measured in a Lumat LB9501 (Berthold) or OmegaFluostar (BMG Labtech) luminometer. Directly after, Gaussia luciferase substrate Coelenterazine (Promega) was added to a final concentration of 20 μM in a mixture with “Stop n' Glow” (Promega) and the luciferase activity was measured. […]

[2] = tested on: normal rat embryo fibroblasts (REFs); experiment: cell cycle distribution by flow cytometry, normal REFs; conditions: 5 μM
Protocol: FIG. 4: MYCMI-7 induces apoptosis in malignant cells and growth arrest in normal cells. A) Cell cycle distribution analysis by flow cytometry of MYC-regulated P493-6 cells and normal rat embryo fibroblasts (REFs). Left panel, P493-6 synchronized in G0 by 24 hours treatment of […] doxycycline. Doxycycline was removed and the cells were harvested 48 hours after the addition of fresh medium containing DMSO or 5 μM MYCMI-7. Right panel, flow cytometry analysis of normal REFs treated with DMSO or 5 μM MYCMI-7. B) Apoptosis assay using the Cell Death Detection ELISA^plus kit. Left panel, immortalized Rat1 fibroblasts with different MYC status after 24 hours of 5 μM MYCMI-7 treatment, middle panel and right panels, normal REFs and normal peripheral blood lymphocytes, respectively, after 24 and 48 hours of 5 μM MYCMI-7 treatment. […] Viability was measured by trypan blue exclusion assay. F) Cell growth measured with Cyt62 assay of primary normal human epidermal melanocytes (NHEM) treated for 72 hours with MYCMI-7, G) Viability measured by trypan blue exclusion assay of NHEM after treatment for 72 hours with MYCMI-7.
Flow cytometry: P493-6 cells were synchronized using 1 μg/ml doxycycline. […] Cells were stained with propidium iodide (Sigma) and 1×10^4 cells per treatment were analyzed using a FACScan and CellQuestPro (Becton Dickinson). […]

MYC:MAX interaction = MYC:MAX interaction (Homo sapiens, UniProt P01106); experiment: split Gaussia luciferase (GLuc) assay, MYC:MAX; design: replacing the existing Zip-gene (GCN4) with full length MYC, MYCN or MAX cDNA; expressed in transfected cells; host or cells: HeLa; conditions: 5 μM
MYC:MAX interaction, sequence (P01106 16-454): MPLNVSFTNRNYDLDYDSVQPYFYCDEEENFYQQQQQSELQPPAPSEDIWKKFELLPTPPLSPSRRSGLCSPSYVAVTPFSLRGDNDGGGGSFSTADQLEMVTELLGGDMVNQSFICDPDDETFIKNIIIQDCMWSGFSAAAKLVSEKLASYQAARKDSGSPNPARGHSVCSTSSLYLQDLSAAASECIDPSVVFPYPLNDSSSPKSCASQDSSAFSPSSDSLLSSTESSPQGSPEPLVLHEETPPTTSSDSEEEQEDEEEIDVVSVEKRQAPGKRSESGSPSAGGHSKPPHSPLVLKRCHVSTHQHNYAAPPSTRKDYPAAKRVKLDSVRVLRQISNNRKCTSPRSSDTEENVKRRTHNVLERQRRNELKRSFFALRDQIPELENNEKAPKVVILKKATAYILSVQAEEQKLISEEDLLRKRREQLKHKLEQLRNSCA
Protocol: A) Molecular structure of MYCMI-7. B-E) split Gaussia luciferase (GLuc) assay. MYC or MYCN and MAX Gluc constructs were co-transfected into HeLa cells together with a firefly luciferase vector. 24 hours post transfection cells were treated with compounds, and after another 17-24 hours cells were harvested and both GLuc and firefly luciferase activities were measured. The mean of three different experiments is shown. Treatment with: B) 5 μM of MYCMI-7, 64 μM 10058-F4 or 5 μM JQ1, respectively, C) 6.5 μM MYCMI-7 on cells expressing MYC:MAX GLuc vs. GCN4:GCN4 GLuc, D) 5 μM MYCMI-7 and 5 μM ellipticine. E) 5 μM MYCMI-7 for various time points. F) in situ proximity ligation assay (isPLA). […] MYC:GAL4 was used as negative control in the isPLA assay. G) Quantification of isPLA dots. (H) Co-immunoprecipitation (co-IP) of endogenous MYC and MAX proteins from MCF7 cells after treatment with 5 μM MYCMI-7 at various times. IP=immunoprecipitation; W=western blot. I) Chromatin immunoprecipitation (ChIP) of MYC at the ODC1 target gene promoter after treatment of cells with 5 μM MYCMI-7 for 6 hours. J) MYC target gene ODC1 expression after treatment with 5 μM MYCMI-7, quantified by qPCR. K) ChIP of MYC at the ODC promoter in MCF7 cells after 5 μM MYCMI-7 treatment for indicated time points. L) Recombinant MYC bHLHZip protein domain immobilized onto a CM5 chip was subjected to various concentrations of MYCMI-7 and the complex of MYCbHLHZip-MYCMI-7 was measured as response units by SPR. The sensogram was produced by subtracting the blank response.
0.2-0.4 μg of each GLuc-construct together with 0.05 μg pCMV-LUC (firefly luciferase) were used per transfection in 12 well plates. 24 hours later cells were treated with compound or DMSO. After another 17 hours, the cells were harvested and lyzed in passive lysis buffer (Promega) supplemented with complete protease inhibitor (Roche). After 60 min incubation at room temperature 20 μM D-luciferin was added (substrate of Firefly luciferase) and luminescence was measured in a Lumat LB9501 (Berthold) or OmegaFluostar (BMG Labtech) luminometer. Directly after, Gaussia luciferase substrate Coelenterazine (Promega) was added to a final concentration of 20 μM in a mixture with “Stop n' Glow” (Promega) and the luciferase activity was measured. The ratio between Gaussia and Firefly luciferase values were calculated and normalized to DMSO-treated control cells.

CCN(CC)CC[n+]1ccc2c(C)c3[nH]c4ccccc4c3c(C)c2c1 [MYCMI-7, 2-(5,11-Dimethyl-6H-25-pyrido[4,3-b]carbazol-2-yl)-N,N-diethylethanamine bromide]
effect on homodimerization of GCN4 (GCN4:GCN4 GLuc) [1]: did not have any significant effect | cell cycle effect [2]: induced G1 arrest | cell death [2]: no increase in cell death | time of treatment within which MYC:MAX interaction was inhibited (MYC:MAX interaction): ≤ 4 h | inhibition of MYC:MAX GLuc interaction (MYC:MAX interaction; HeLa cells): inhibited
